In US20230374038A1, “MODULATORS OF CYSTIC FIBROSIS TRANSMEMBRANE CONDUCTANCE REGULATOR” (VERTEX PHARMACEUTICALS INCORPORATED, priority 2020, published 2023):
Where “and” joins values, the source holds several entries; their conditions need not be identical. Equal values may be shown once. Read-outs that look alike come from different tables or passages of the source.

Tests used:
[1] = amide bond
[2] = target: CFTR (Homo sapiens, UniProt P13569); assay: Membrane Potential Dye, Enteroid Assay B; format: cell-based; details: for EC50: read-out: Ent. B EC50
How it was run: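 Membrane-potential fluorescence read over 15 min after chloride-free stimulation (forskolin 10 μM, IBMX 100 μM, Compound III 300 nM), with CaCCinh-A01 and Chicago Sky Blue present. Enteroids had 18-24 h compound exposure at 37 °C; activity given as % of the triple-combination corrector/potentiator reference response.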

Chain of CFTR (P13569 with tags, fused parts or gaps DEL508-508): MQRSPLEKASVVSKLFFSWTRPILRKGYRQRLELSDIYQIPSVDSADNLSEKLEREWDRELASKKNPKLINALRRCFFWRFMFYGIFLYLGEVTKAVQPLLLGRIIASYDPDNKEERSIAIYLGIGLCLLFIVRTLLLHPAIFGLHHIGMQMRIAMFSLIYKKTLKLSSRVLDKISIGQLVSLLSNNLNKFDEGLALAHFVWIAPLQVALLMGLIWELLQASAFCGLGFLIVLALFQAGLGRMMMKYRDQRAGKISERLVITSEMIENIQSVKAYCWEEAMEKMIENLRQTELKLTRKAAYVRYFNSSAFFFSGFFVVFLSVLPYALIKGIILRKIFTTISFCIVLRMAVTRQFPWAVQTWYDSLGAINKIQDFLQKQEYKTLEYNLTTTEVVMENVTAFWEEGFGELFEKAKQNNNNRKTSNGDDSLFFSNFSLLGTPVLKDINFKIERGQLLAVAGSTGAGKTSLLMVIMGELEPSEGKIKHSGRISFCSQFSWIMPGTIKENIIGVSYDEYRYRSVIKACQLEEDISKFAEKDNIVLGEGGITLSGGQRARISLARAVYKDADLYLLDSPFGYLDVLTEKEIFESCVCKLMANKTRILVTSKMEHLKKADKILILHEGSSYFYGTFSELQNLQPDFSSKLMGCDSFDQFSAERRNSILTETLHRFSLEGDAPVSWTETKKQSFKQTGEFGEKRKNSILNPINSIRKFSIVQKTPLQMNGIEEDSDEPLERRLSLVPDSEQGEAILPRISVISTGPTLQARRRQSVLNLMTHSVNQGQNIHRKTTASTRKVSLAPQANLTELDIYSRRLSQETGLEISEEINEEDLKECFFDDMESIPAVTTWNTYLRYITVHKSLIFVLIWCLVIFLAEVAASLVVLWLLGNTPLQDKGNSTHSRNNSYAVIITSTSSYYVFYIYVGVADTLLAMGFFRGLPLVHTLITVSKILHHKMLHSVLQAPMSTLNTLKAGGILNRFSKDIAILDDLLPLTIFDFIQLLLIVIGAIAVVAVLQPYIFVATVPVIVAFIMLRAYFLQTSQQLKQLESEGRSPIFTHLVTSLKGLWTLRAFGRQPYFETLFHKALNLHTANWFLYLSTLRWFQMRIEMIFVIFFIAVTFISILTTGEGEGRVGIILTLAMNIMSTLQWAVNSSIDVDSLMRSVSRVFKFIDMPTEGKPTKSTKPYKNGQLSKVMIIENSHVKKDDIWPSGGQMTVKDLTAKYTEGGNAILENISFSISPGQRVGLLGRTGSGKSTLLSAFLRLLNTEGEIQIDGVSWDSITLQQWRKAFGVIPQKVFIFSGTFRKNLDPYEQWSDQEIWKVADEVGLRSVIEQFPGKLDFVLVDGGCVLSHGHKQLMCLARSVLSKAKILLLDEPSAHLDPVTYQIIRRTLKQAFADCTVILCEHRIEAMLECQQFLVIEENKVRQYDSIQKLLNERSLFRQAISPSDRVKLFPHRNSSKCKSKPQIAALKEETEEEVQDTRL

Compound | Ent. B Max Activity [2] | EC50 [2] | also measured
Cc1cccc(C)c1-c1nc2nc(c1C)OC[C@@H](CC(C)C)N(C1CC3(CC3)C1)C(=O)c1cccc(n1)S(=O)(=O)N2 [Compound 118, (11R)-6-(2,6-Dimethylphenyl)-7-methyl-11-(2-methylpropyl)-12-{spiro[2.3]hexan-5-yl}-9-oxa-2λ^6-thia-3,5,12,18,19-pentaazatricyclo[12.3.1.14,8]nonadeca-1(17),4(19),5,7,14(18),15-hexaene-2,2,13-trione] | +++ (+++ is >60%) | < 1000 nM | ring closure, yield after HPLC ([1]; from Cc1cccc(C)c1-c1nc(NS(=O)(=O)c2cccc(C(=O)O)n2)nc(OC[C@@H](CC(C)C)NC2CC3(CC3)C2)c1C, 13-membered ring, HATU/DIEA, DMF, 12.2 mM, 17.0 h): 42%
Cc1cccc(C)c1-c1nc2nc(c1C)OC[C@@H](CC1(C(F)(F)F)CC1)N(C1CC3(CC3)C1)C(=O)c1cccc(c1)S(=O)(=O)N2 [Compound 50, (11R)-6-(2,6-Dimethylphenyl)-7-methyl-2,2-dioxo-12-spiro[2.3]hexan-5-yl-11-[[1-(trifluoromethyl)cyclopropyl]methyl]-9-oxa-2λ^6-thia-3,5,12,19-tetrazatricyclo[12.3.1.14,8]nonadeca-1(18),4(19),5,7,14,16-hexaen-13-one] | +++ (+++ is >60%) | < 1000 nM | ring closure, yield after HPLC ([1]; from Cc1cccc(C)c1-c1nc(NS(=O)(=O)c2cccc(C(=O)O)c2)nc(OC[C@@H](CC2(C(F)(F)F)CC2)NC2CC3(CC3)C2)c1C, 13-membered ring, HATU/DIEA, DMF, 14.4 mM, 25.0 °C, 23.0 h): 44%
Cc1cccc(C)c1-c1nc2nc(c1C)OC[C@@H](CC(C)(C)C(F)(F)F)N(C1CC3(CCN(C(=O)OC(C)(C)C)CC3)C1)C(=O)c1cccc(c1)S(=O)(=O)N2 [Compound 156, tert-Butyl 2-[(11R)-6-(2,6-dimethylphenyl)-7-methyl-2,2,13-trioxo-11-(3,3,3-trifluoro-2,2-dimethylpropyl)-9-oxa-2λ^6-thia-3,5,12,19-tetraazatricyclo[12.3.1.14,8]nonadeca-1(17),4(19),5,7,14(18),15-hexaen-12-yl]-7-azaspiro[3.5]nonane-7-carboxylate] | +++ (+++ is >60%) | < 1000 nM | ring closure, yield after HPLC ([1]; from Cc1cccc(C)c1-c1nc(NS(=O)(=O)c2cccc(C(=O)O)c2)nc(OC[C@@H](CC(C)(C)C(F)(F)F)NC2CC3(CCN(C(=O)OC(C)(C)C)CC3)C2)c1C, 13-membered ring, HATU/DIEA, DMF, 23.2 mM, 29.0 h): 22%
Cc1cccc(C)c1-c1nc2nc(c1C)OC[C@@H](C)N(C1CC3(CC(NC(=O)OC(C)(C)C)C3)C1)C(=O)c1cccc(c1)S(=O)(=O)N2 (stereo partly drawn) [Compound 116, tert-Butyl N-{6-[(11R)-6-(2,6-dimethylphenyl)-7,11-dimethyl-2,2,13-trioxo-9-oxa-2λ^6-thia-3,5,12,19-tetraazatricyclo[12.3.1.14,8]nonadeca-1(18),4,6,8(19),14,16-hexaen-12-yl]spiro[3.3]heptan-2-yl}carbamate] | ++ (++ is 30-60%) | < 1000 nM | ring closure, yield after HPLC ([1]; from Cc1cccc(C)c1-c1nc(NS(=O)(=O)c2cccc(C(=O)O)c2)nc(OC[C@@H](C)NC2CC3(CC(NC(=O)OC(C)(C)C)C3)C2)c1C, 13-membered ring, HATU/TEA, DMF, 26.7 mM, 1.0 h): 57%
Cc1cccc(C)c1-c1nc2nc(c1C)O[C@H](c1ccc(C(C)(C)C)cc1)[C@@H](C)NC(=O)c1cccc(c1)S(=O)(=O)N2 [Compound 172, (10R,11R)-10-(4-tert-Butylphenyl)-6-(2,6-dimethylphenyl)-7,11-dimethyl-2,2-dioxo-9-oxa-2λ^6-thia-3,5,12,19-tetrazatricyclo[12.3.1.14,8]nonadeca-1(18),4(19),5,7,14,16-hexaen-13-one] | +++ (+++ is >60%) | < 1000 nM | ring closure, yield after HPLC ([1]; 13-membered ring, NaOtBu then HATU, THF/DMF, 77.0 mM, 2 steps): 8%
Cc1cccc(C)c1-c1nc2nc(c1C)OCCCNC(=O)c1cccc(c1)S(=O)(=O)N2 [Compound 36, 6-(2,6-Dimethylphenyl)-7-methyl-9-oxa-2λ^6-thia-3,5,13,20-tetraazatricyclo[13.3.1.14,8]icosa-1(19),4,6,8(20),15,17-hexaene-2,2,14-trione] | + (+ is <30%) | 3000 to 30000 nM | ring closure, yield after HPLC ([1]; from Cc1cccc(C)c1-c1nc(NS(=O)(=O)c2cccc(C(=O)O)c2)nc(OCCCN)c1C, 14-membered ring, HATU/DIEA, DMF, 49.0 mM, 25.0 °C, 1.0 h): 46%
Cc1cccc(C)c1-c1nc2nc(c1C(F)(F)F)OC[C@@H](CC(C)C)N(C1CC3(CC3)C1)C(=O)c1cccc(c1)S(=O)(=O)N2 [Compound 162, (11R)-6-(2,6-dimethylphenyl)-11-isobutyl-2,2-dioxo-12-spiro[2.3]hexan-5-yl-7-(trifluoromethyl)-9-oxa-2λ^6-thia-3,5,12,19-tetrazatricyclo[12.3.1.14,8]nonadeca-1(18),4(19),5,7,14,16-hexaen-13-one] | +++ (+++ is >60%) | < 1000 nM | ring closure, yield after HPLC ([1]; from Cc1cccc(C)c1-c1nc(NS(=O)(=O)c2cccc(C(=O)O)c2)nc(OC[C@@H](CC(C)C)NC2CC3(CC3)C2)c1C(F)(F)F, 13-membered ring, HATU/TEA, DMF, 11.7 mM, 16.0 h): 69%
Cc1cccc(CC(C)C)c1-c1nc2nc(c1C(F)(F)F)OC[C@@H](CC(C)(C)C)N(Cc1ncc(N3CCOCC3)cn1)C(=O)c1cccc(c1)S(=O)(=O)N2 |  |  | ring closure, yield after HPLC ([1]; from Cc1cccc(CC(C)C)c1-c1nc(NS(=O)(=O)c2cccc(C(=O)O)c2)nc(OC[C@@H](CC(C)(C)C)NCc2ncc(N3CCOCC3)cn2)c1C(F)(F)F, 13-membered ring, CDMT/NMM, DMF, 92.0 mM, 4.0 h): 37%
CCc1c2nc(nc1-c1c(C)cccc1C)NS(=O)(=O)c1cccc(c1)C(=O)N[C@H](CC(C)(C)C)CO2 [Compound 161, (11R)-6-(2,6-Dimethylphenyl)-11-(2,2-dimethylpropyl)-7-ethyl-9-oxa-2λ^6-thia-3,5,12,19-tetraazatricyclo[12.3.1.14,8]nonadeca-1(18),4(19),5,7,14,16-hexaene-2,2,13-trione] | +++ (+++ is >60%) | < 1000 nM | ring closure, yield after HPLC ([1]; from CCc1c(OC[C@H](N)CC(C)(C)C)nc(NS(=O)(=O)c2cccc(C(=O)O)c2)nc1-c1c(C)cccc1C, 13-membered ring, COMU/DIEA, DMF, 20.3 mM, 15.0 h): 41%
Cc1cccc(C)c1-c1nc2nc(c1C)OC[C@@H](C)NC(=O)c1cccc(c1)S(=O)(=O)N2 [Compound 117, (11R)-6-(2,6-Dimethylphenyl)-7,11-dimethyl-9-oxa-2λ^6-thia-3,5,12,19-tetraazatricyclo[12.3.1.14,8]nonadeca-1(18),4,6,8(19),14,16-hexaene-2,2,13-trione] | ++ (++ is 30-60%) | 1000 to 3000 nM | ring closure, yield after HPLC ([1]; from Cc1cccc(C)c1-c1nc(NS(=O)(=O)c2cccc(C(=O)O)c2)nc(OC[C@@H](C)N)c1C, 13-membered ring, HATU/DIEA, DMF, 49.3 mM, 1.0 h): 18%
(5M,11R)-11-(2,2-dimethylpropyl)-12-({5-[(2,2-dimethylpropyl)(methyl)amino]pyrimidin-2-yl}methyl)-7-methyl-6-[2-methyl-6-(2-methylpropyl)phenyl]-9-oxa-2λ^6-thia-3,5,12,19-tetraazatricyclo[12.3.1.14,8]nonadeca-1(17),4(19),5,7,14(18),15-hexaene-2,2,13-trione |  |  | ring closure, yield after HPLC ([1]; 13-membered ring, CDMT/NMM, DMF, 2 steps): 20%
(5P,11R)-11-(2,2-dimethylpropyl)-7-methyl-6-[2-methyl-6-(3-methylbutyl)phenyl]-12-{[5-(propan-2-yloxy)pyrimidin-2-yl]methyl}-9-oxa-2λ^6-thia-3,5,12,19-tetraazatricyclo[12.3.1.14,8]nonadeca-1(17),4(19),5,7,14(18),15-hexaene-2,2,13-trione |  |  | ring closure, yield after HPLC ([1]; 13-membered ring, CDMT/NMM, DMF, 33.8 mM): 45%
(5P,11R)-11-(2,2-dimethylpropyl)-12-({5-[(2,2-dimethylpropyl)(methyl)amino]pyrimidin-2-yl}methyl)-7-methyl-6-[2-methyl-6-(2-methylpropyl)phenyl]-9-oxa-2λ^6-thia-3,5,12,19-tetraazatricyclo[12.3.1.14,8]nonadeca-1(17),4(19),5,7,14(18),15-hexaene-2,2,13-trione |  |  | ring closure, yield after HPLC ([1]; 13-membered ring, CDMT/NMM, DMF, 19.0 mM, 2 steps): 11%
Cc1ccc2cc1Oc1cc(-c3c(C)cccc3C)nc(n1)NS(=O)(=O)c1cccc(c1)NC2=O |  |  | ring closure, yield after HPLC ([1]; from Cc1ccc(C(=O)O)cc1Oc1cc(-c2c(C)cccc2C)nc(NS(=O)(=O)c2cccc(N)c2)n1, 14-membered ring, HATU/DIEA, DMF, 78.0 mM, 25.0 °C, 0.083 h, 3 steps): 26%
Cc1cccc(CC2CCOCC2)c1-c1nc2nc(c1C)OC[C@@H](CC(C)(C)C)N(Cc1ncc(N3CCOCC3)cn1)C(=O)c1cccc(c1)S(=O)(=O)N2 |  |  | ring closure, yield after HPLC ([1]; from Cc1cccc(CC2CCOCC2)c1-c1nc(NS(=O)(=O)c2cccc(C(=O)O)c2)nc(OC[C@@H](CC(C)(C)C)NCc2ncc(N3CCOCC3)cn2)c1C, 13-membered ring, CDMT/NMM, DMF, 41.0 mM, 19.0 h): 25%
Cc1cccc(C(C)C)c1-c1nc2nc(c1C)OC[C@@H](CC(C)(C)C)N(Cc1ncc(N3CCOCC3)cn1)C(=O)c1cccc(c1)S(=O)(=O)N2 |  |  | ring closure, yield after HPLC ([1]; from Cc1cccc(C(C)C)c1-c1nc(NS(=O)(=O)c2cccc(C(=O)O)c2)nc(OC[C@@H](CC(C)(C)C)NCc2ncc(N3CCOCC3)cn2)c1C, 13-membered ring, CDMT/NMM, DMF, 55.0 mM, 19.0 h): 18% and 11%
(5M,11R)-11-(2,2-dimethylpropyl)-7-methyl-6-[2-methyl-6-(3-methylbutyl)phenyl]-12-{[5-(propan-2-yloxy)pyrimidin-2-yl]methyl}-9-oxa-2λ^6-thia-3,5,12,19-tetraazatricyclo[12.3.1.14,8] nonadeca-1(17),4(19),5,7,14(18),15-hexaene-2,2,13-trione |  |  | ring closure, yield after HPLC ([1]; 13-membered ring, CDMT/NMM, DMF, 47.4 mM): 40%
COc1c2nc(nc1-c1c(C)cccc1C)NS(=O)(=O)c1cccc(c1)C(=O)N(C1CC3(CCN(C(=O)OC(C)(C)C)CC3)C1)[C@H](CC(C)C)CO2 |  |  | ring closure, yield after HPLC ([1]; 13-membered ring, HATU/DIEA, DMF): 22%
